Measurements reported in patent publication US3955959A, “Herbicide for use in transplanted rice” (priority 1974, dated 1976).

How the values were obtained:
weeds in rice fields = conditions: prior art; cited from earlier work
[1] = tested on: direct-seeded rice plants; conditions: 1.0 lb/ac and 0.25 lb/ac; '620 and '945 Table I; cited from earlier work
Cc (Commelina communis) = experiment: Example 7 greenhouse preemergence activity; format: in vivo
Protocol: In a further comparative study of the preemergence activity of Herbicides A and B, a variety of weeds and upland direct-seeded rice were tested under greenhouse conditions. The present invention is not concerned with the use of Herbicide A in direct-seeded rice. The primary purpose of the experimental work in this example is to compare relative herbicidal activity of Herbicides A and B against the weeds shown in Table 7; most of these weeds were not available for tests with transplanted rice. Although the relative selectivity of these herbicides in upland rice is also evident, that aspect of the tests is more or less incidental to the purpose of this example.
In this example, rice seeds and seeds of the weeds shown in Table 7 were sown in Ray silt loam soil at a depth of 0.5 inch (1.27 cm) in containers for the soil in a greenhouse. Herbicides A and B were applied to the surface of the soil at a spray volume equivalent to 20 gals/acre (187.1 liters/hectare), followed by 0.5 in (1.27 cm) of overhead irrigation. Temperature and relative humidity in the greenhouse were on the order of 85°F (29°C) and 75%, respectively. Observations were made at 21-28 days after seeding.
In Table 7 are shown the average rates of herbicide required to cause a growth reduction of 85% of the weeds ("GR85 "), and the average rate of herbicide required to cause a growth reduction of 15% ("GR15 ") of the rice plants (Oryza sativa, "Os", variety Bluebelle).

carp = experiment: Example 10 fish toxicity, Japanese protocol; format: in vivo
Protocol: In view of the importance of fish toxicological considerations, tests were conducted, using carp according to the Japanese protocol, to compare toxicity data for Herbicides A and B; results of those tests are shown in Table 10.

Sa (Sagittaria aginashi) = experiment: Other tests, perennial control; format: in vivo
[2] = tested on: Ec (Echinochloa crusgalli); experiment: Example 8 residual weed control, JAAPR, Japan; format: in vivo; conditions: Table 8 (Ec and Ri)
Protocol: This example describes the results of tests conducted at the JAAPR Laboratory in Japan to determine the comparative residual effect of Herbicide A vis-a-vis that of commercial rice herbicides in Japan.
In the tests according to this example, the test weed species Echinochloa crusgalli (Ec) and Rotala indica (Ri), were grown in clay loam soil having 2.3% organic matter and a percolation rate of 3 cm/day for 2 days. Herbicide A was applied to the weeds at an expected use rate of about 0.67-1.34 lbs/ac (0.75-1.5 kgs/ha) and the commercial rice herbicides, whose active ingredients are identified below, were applied at their indicated expected use rates: […]

[3] = tested on: weeds in transplanted rice; experiment: Example 6 overall; format: in vivo
Protocol: (§1) In this example, the efficacy of Herbicide A is presented for a variety of weeds in the presence of ordinary and infant transplant rice. In this example, tests were conducted at the said JAAPR Lab at different times of the year. "Early season" transplants were made in April and "Normal season" transplants were made in July. The size of the transplants at the respective seasons were: Season Seedling Type Plant Height (cm) Leaf Stage ______________________________________ Early Ordinary 16.5 4.5 Early Infant 9.1 2.4 Normal Ordinary 41.7 5.3 Normal Infant 14.7 1.9 ______________________________________
(§2) Duplicate treatments were used. At the time of application of the herbicide, the status of the grass (EC) was as follows: […]

[4] = tested on: Echinochloa crusgalli and Monochoria vaginalis; experiment: Example 2 field test, overall; format: in vivo
Excerpt: Rice seedlings (ordinary) of Tainan No. 5 variety (japonica) were transplanted at 19 days of growth. Granular formulations of Herbicides A and B were applied at the 1 leaf stage of grass weed (4 DAT) and 2.5 leaf stage of grass weed (10 DAT).

[5] = tested on: Alisma canaliculatum, Aneilema japonica, Monochoria vaginalis, Commelina communis; experiment: Weeds effectively treated to date: monocotyledonous broadleaf weeds; format: in vivo
[6] = tested on: Ek (Eleocharis kuroguwai); experiment: Other tests, perennial control; format: in vivo
[7] = tested on: Brachiaria platyphylla, Digitaria spp, Echinochloa spp, Eleusine indica, Leptochloa spp and Setaria spp; experiment: Weeds effectively treated to date: grasses; format: in vivo
Cs (Cyperus serotinus) = experiment: Example 6 weed control, JAAPR, Japan; format: in vivo; conditions: Normal season
Protocol: as §1, §2

[8] = tested on: Ea (Eleocharis acicularis); experiment: Example 6 weed control, JAAPR, Japan; format: in vivo
Protocol: as §1, §2

transplanted rice = experiment: Crop safety to transplanted rice, general; format: in vivo
[9] = tested on: Cyperus difformis, Cyperus iria, Cyperus serotinus, Eleocharis acicularis, Eleocharis kuroguwai, Fimbristylis spp, Scirpus hotarui and Scirpus spp; experiment: Weeds effectively treated to date: sedges; format: in vivo
[10] = tested on: Ammannia spp, Amaranthus retroflexus, Elatine triandra, Jussiaea decurrens, Lindernia pyxidaria, Rotala Sphenoclea zeylanica and Partulaca oleracea; experiment: Weeds effectively treated to date: dicotyledonous broadleaf weeds; format: in vivo

In the case of CCCCOCN(C(=O)CCl)c1c(CC)cccc1CC [Herbicide B, n-(butoxymethyl)-2',6'-diethyl-2-chloroacetanilide, reference compound], the period of application (weeds in rice fields) is given as “only brief periods of application”.
For CCCCOCN(C(=O)CCl)c1c(C)cccc1C(C)(C)C [Herbicide A, n-(butoxymethyl)-6'-tert-butyl-2-chloro-o-acetotoluidide], the “phytotoxicity to direct-seeded rice” value [1] is given as “severe phytotoxicity”, the “resistance of Cc” value (Cc (Commelina communis)) is given as “resistant” and the “toxicity to carp relative to Herbicide B” value (carp; equal concentration basis) is given as “about one-half”. The “toxicity in the field relative to Herbicide B” value (carp; taking expected use rate one-third of B) was “about one-sixth”, the “activity against Sa” value (Sa (Sagittaria aginashi)) was “generally weak” and the residual activity [2] was “over 30 days”. The “weed control in words” value ([3]; all weeds except Sagittaria (Sp)) was “very effective”, the “toxicity to weeds and rice, normal vs early season” value ([3]; normal season vs early season) was “slightly more toxic to both weeds and rice” and the efficacious application period ([3]; relative to transplanting) was “from 2 days before transplanting to 12 DAT”. The “period of application vs Herbicide B” value ([4]; Example 2) was “could be applied over a longer period of time”, the “fold more active than Herbicide B” value ([4]; control of Echinochloa crusgalli and Monochoria vaginalis) was 3-6 fold and the “effectively treated monocotyledonous broadleaf weeds” value [5] was “effectively treated”. For the same compound, the “control of perennial Ek” value [6] was “fair to good”, the effectively treated grasses [7] was “effectively treated” and the “% Weed Control (Cs)” value (Cs (Cyperus serotinus); infant, 1.0 kg/ha, 3 DAT) was 100%. For the same compound, the “% Weed Control (Cs)” value (Cs (Cyperus serotinus); infant, 1.0 kg/ha, 7 DAT) was 100%, the “% Weed Control (Cs)” value (Cs (Cyperus serotinus); infant, 1.0 kg/ha, -2 DAT) was 100% and the “% Weed Control (Cs)” value (Cs (Cyperus serotinus); infant, .5 kg/ha, 3 DAT) was 100%. The “% Weed Control (Cs)” value (Cs (Cyperus serotinus); infant, .5 kg/ha, 7 DAT) was 100%, the “% Weed Control (Cs)” value (Cs (Cyperus serotinus); infant, .5 kg/ha, -2 DAT) was 100% and the “% Weed Control (Cs)” value (Cs (Cyperus serotinus); ordinary, 1.0 kg/ha, 3 DAT) was 100%. For the same compound, the “% Weed Control (Cs)” value (Cs (Cyperus serotinus); ordinary, 1.0 kg/ha, 7 DAT) was 100%, the “% Weed Control (Cs)” value (Cs (Cyperus serotinus); ordinary, 1.0 kg/ha, -2 DAT) was 100% and the “% Weed Control (Cs)” value (Cs (Cyperus serotinus); ordinary, .5 kg/ha, 3 DAT) was 100%. The “% Weed Control (Cs)” value (Cs (Cyperus serotinus); ordinary, .5 kg/ha, 7 DAT) was 100%, the “% Weed Control (Cs)” value (Cs (Cyperus serotinus); ordinary, .5 kg/ha, -2 DAT) was 100% and the “% Weed Control (Ea)” value ([8]; Early season, ordinary, 1.0 kg/ha, 3 DAT) was 100%. The “% Weed Control (Ea)” value ([8]; Early season, ordinary, 1.0 kg/ha, 12 DAT) was 100%, the “% Weed Control (Ea)” value ([8]; Early season, ordinary, 1.0 kg/ha, -2 DAT) was 100% and the “% Weed Control (Ea)” value ([8]; Early season, ordinary, .5 kg/ha, 3 DAT) was 100%. The “% Weed Control (Ea)” value ([8]; Early season, ordinary, .5 kg/ha, 12 DAT) was 100%, the “% Weed Control (Ea)” value ([8]; Early season, ordinary, .5 kg/ha, -2 DAT) was 100% and the “% Weed Control (Ea)” value ([8]; Normal season, infant, 1.0 kg/ha, 3 DAT) was 100%. The “% Weed Control (Ea)” value ([8]; Normal season, infant, 1.0 kg/ha, 7 DAT) was 100%, the “% Weed Control (Ea)” value ([8]; Normal season, infant, 1.0 kg/ha, -2 DAT) was 100% and the “% Weed Control (Ea)” value ([8]; Normal season, infant, .5 kg/ha, 3 DAT) was 100%. For the same compound, the “% Weed Control (Ea)” value ([8]; Normal season, infant, .5 kg/ha, 7 DAT) was 100%, the “% Weed Control (Ea)” value ([8]; Normal season, infant, .5 kg/ha, -2 DAT) was 100% and the “% Weed Control (Ea)” value ([8]; Normal season, ordinary, 1.0 kg/ha, 3 DAT) was 100%. The “% Weed Control (Ea)” value ([8]; Normal season, ordinary, 1.0 kg/ha, 7 DAT) was 100%, the “% Weed Control (Ea)” value ([8]; Normal season, ordinary, 1.0 kg/ha, -2 DAT) was 100% and the “% Weed Control (Ea)” value ([8]; Normal season, ordinary, .5 kg/ha, 3 DAT) was 100%. For the same compound, the “% Weed Control (Ea)” value ([8]; Normal season, ordinary, .5 kg/ha, 7 DAT) was 100%, the “% Weed Control (Ea)” value ([8]; Normal season, ordinary, .5 kg/ha, -2 DAT) was 100% and the safe application timing (transplanted rice; 2 days before transplant (Table 6) to 14 DAT (Table 4)) was “can safely be applied preemergence”. For the same compound, the “crop injury, transplanted rice” value (transplanted rice; recommended use rates) was “negligible crop injury”, the effectively treated sedges [9] was “effectively treated” and the “effectively treated dicotyledonous broadleaf weeds” value [10] was “effectively treated”.
